This is an account of results in article PMC6945062, “Aβ43‐producing PS1 FAD mutants cause altered substrate interactions and respond to γ‐secretase modulation” (EMBO Reports, 2019).

Converted amounts (≈) assume the structure as drawn.

Data set [1] has as its system PS1 WT or FAD mutant γ‐secretase. The experiment in a line: ELISA of Aβ species in conditioned media of HEK293/sw cells overexpressing WT or mutant PS1. The format is cell-based, human. How it is done: For GSM treatments, the cells were grown to a confluence of 70–80%. Thereafter, medium was changed to fresh medium containing either DMSO vehicle control or GSM at the indicated concentration and the cells were incubated for 16–18 h before Aβ analysis of conditioned medium. […] Mouse N2a cells stably overexpressing swAPP were cultured in DMEM (high glucose) supplemented with 10% FCS and 1 mM sodium pyruvate and treated with GSM as described above.
(§1) Immunoblot analysis of PS1 and PS2, NCT, full‐length APP, C‐terminal APP fragments, secreted APPs, and Aβ was performed as described 52. To analyze GSM dose responses and determine IC50 values for Aβ42 inhibition, secreted Aβ species of HEK293/sw cells were analyzed by sandwich immunoassay (MSD) using SULFO‐tagged C‐terminal specific antibodies to Aβ38, Aβ40, and Aβ42 as described before 26 or, in case of H4/sw and N2a/sw cells by an Aβ42 AlphaLISA immunoassay kit according to the instructions of the supplier (PerkinElmer). Notch1 cleavage reporter assay was carried out as described 51. GSM‐mediated changes of secreted Aβ species in conditioned medium of PS1 WT or mutant expressing HEK293/sw cells were quantified by ELISA using end‐specific C‐terminal antibodies to Aβ38, Aβ40, Aβ42, and Aβ43 obtained from IBL as described previously 16. Mass spectrometry analysis of secreted Aβ species was performed after immunoprecipitation using antibody 4G8 as described previously 17. Individual Aβ species were analyzed by immunoblotting, using Tris–Bicine urea SDS–PAGE 53. To improve the separation of longer Aβ species (e.g., Aβ42/43), the separation gel was adjusted to 8% acrylamide and 8 M urea. Aβ37 and Aβ38 generated in cell‐free γ‐secretase assays were analyzed by sandwich immunoassay (MSD) as above using SULFO‐tagged species‐specific antibodies. AICD generation in these assays was analyzed by immunoblotting with Penta‐His antibody after sample separation on 10–20% Tris–Tricine gels (Invitrogen). Protein bands from immunoblots were quantified using the LAS‐4000 image reader (Fujifilm Life Science) and Multi‐Gauge V3.0 software for analysis.
In general terms: ELISA stands for enzyme-linked immunosorbent assay.

Data set [2] relates to CHAPSO‐solubilized γ‐secretase. The experiment in a line: Cell‐free γ‐secretase assay with recombinant C100‐His6 (AICD generation). The format is biochemical, human. As to conditions: 2.5 μM, WT and mutant PS1. How it is done: as §1, with “Mass spectrometry analysis of secreted Aβ species was performed after immunoprecipitation using antibody 4G8 as described previously 17.” left out, “To improve the separation of longer Aβ species (e.g., Aβ42/43), the separation gel was adjusted to 8% acrylamide and 8 M urea.” left out, “analysis. […]” for “analysis.”

For another data set, the system named is Notch1 cleavage. The experiment in a line: HEK293 cell‐based Notch1 luciferase reporter assay. The note with it: Homo sapiens; HEK293‐based Notch1 luciferase reporter cell line; n = 2. How it is done: (§2) Single‐cell clones of HEK293 cells stably co‐expressing swAPP with WT and mutant PS1 constructs were cultured as described 50. For GSM treatments, the cells were grown to a confluence of 70–80%. Thereafter, medium was changed to fresh medium containing either DMSO vehicle control or GSM at the indicated concentration and the cells were incubated for 16–18 h before Aβ analysis of conditioned medium. Single‐cell clones of H4 overexpressing swAPP and HEK293‐based Notch1 reporter cell lines were cultured and treated with GSM as described 51. […]
(§3) Immunoblot analysis of PS1 and PS2, NCT, full‐length APP, C‐terminal APP fragments, secreted APPs, and Aβ was performed as described 52. To analyze GSM dose responses and determine IC50 values for Aβ42 inhibition, secreted Aβ species of HEK293/sw cells were analyzed by sandwich immunoassay (MSD) using SULFO‐tagged C‐terminal specific antibodies to Aβ38, Aβ40, and Aβ42 as described before 26 or, in case of H4/sw and N2a/sw cells by an Aβ42 AlphaLISA immunoassay kit according to the instructions of the supplier (PerkinElmer). […] GSM‐mediated changes of secreted Aβ species in conditioned medium of PS1 WT or mutant expressing HEK293/sw cells were quantified by ELISA using end‐specific C‐terminal antibodies to Aβ38, Aβ40, Aβ42, and Aβ43 obtained from IBL as described previously 16. […]

Data set [3] is described as follows: LogD (octanol-water distribution coefficient). The format is physicochemical. As to conditions: pH 7.4. The text has this: (§4) ^aLogD= logarithm of the octanol-water distribution coefficient at pH 7.4; ^bPAMPA: Parallel artificial membrane parallel assay; ^cCLmicr (h/m): human/mouse microsomal clearance
Data set [4] relates to γ‐secretase (total Aβ secretion in HEK293/sw cells). Kind of data set: Immunoblot analysis of total Aβ in conditioned media of HEK293/sw cells. It is filed as cell-based, human. As for the experimental part:
as §2, §3
(In general: A western blot detects proteins with antibodies after separation by electrophoresis.)

A short description of data set [5]: Mouse microsomal clearance. The format is in vitro ADME. The note with it: mouse microsomes, read-out: CLmicr mouse microsomal clearance.
Text: as §4

Data set [6] is described as follows: Human microsomal clearance. The format is in vitro ADME. As to conditions: human microsomes, read-out: CLmicr human microsomal clearance.
Text: as §4

A further data set is described as follows: PAMPA permeability. It is filed as in vitro ADME.
Text: as §4
(In general: In PAMPA a lipid-coated filter parts donor from acceptor wells.)

The subject of data set [7] is C99–PS1 interaction (CHAPSO‐solubilized γ‐secretase). The experiment in a line: C99 V44Bpa photocrosslinking to PS1 in CHAPSO lysates. The format is binding, human. As for the experimental part: Bpa‐containing C99‐based γ‐secretase substrates were prepared as described previously 22. CHAPSO‐lysates were prepared from HEK293/sw cells co‐expressing either PS1 WT or PS1 mutants. Photocrosslinking was performed as described before 22. Crosslinking of the substrates was analyzed by immunoblotting using antibodies against the PS1 NTF as described 22. For substrate crosslinking experiments in the presence of RO7019009, the cell lysates were pre‐incubated for 30 min on ice with RO7019009 or DMSO vehicle before the addition of C99 V44Bpa and subsequent photocrosslinking.

Data set [8] has as its system PS1 WT or FAD mutant γ‐secretase. Kind of data set: Mass spectrometry analysis of Aβ species from HEK293/sw cells overexpressing WT or mutant PS1. The note with it: all mutants, 500 nM. It is filed as cell-based, human. As for the experimental part: as §2, §3
The nature of the next data set: Solubility. The format is physicochemical. The text has this: Supplement EMBR-21-e47996-s003.docx, table 1: Table EV1. RO7019009 key physicochemical and pharmacokinetic properties predicting CNS drug-likeness | column: Solubility (µg/ml)
In data set [9] the target is C99 V44Bpa. The experiment in a line: photocrosslinking of C99 V44Bpa to PS1 NTF, immunoblot quantitation. As to conditions: box plot median, n = 7–11 biological replicates, read off a plot.
The target of data set [10] is C99 V44Bpa. Kind of data set: photocrosslinking of C99 V44Bpa to full-length PS1, immunoblot quantitation. The note with it: box plot median, n = 7–11 biological replicates, read off a plot.
Where [11] appears, read: PS1 L166P mutant, HEK293/sw cells.
The mark [12] stands for this setting: PS1 R278I and L166P mutants, HEK293/sw cells.
[13] abbreviates: PS1 R278I mutant, HEK293/sw cells.
Setting [14] is: RO7019009 50 nM, parent: est. 1.0.
The mark [15] stands for this setting: RO7019009 500 nM, parent: est. 0.90.
[16] abbreviates: RO7019009 2500 nM, parent: est. 0.49.

Take `CC(C)CC[C@H](c1ccc(Cl)cc1)N1CC[C@@H](CC(=O)O)C[C@H]1c1ccc(C(F)(F)F)cc1` [GSM‐1]: the Aβ43 production result in data set [1] (setting [11]) is listed as “only poorly, if at all”; in data set [1] (setting [13]), “weakly reduced”. In addition, in data set [1] (setting [12]), the Aβ42 levels entry is “remained unaffected”.
Consider `Cc1nsc(N2C[C@H]3CC[C@@H](C2)[C@@H]3Nc2nc3c(-c4ccc(F)c(F)c4F)cccn3n2)n1` [RO7019009], for which the “total AICD generation” value in [2] is “not or only marginally reduced”. Moreover, the IC50 (in general, the concentration that inhibits the measured activity by half) with Notch1 cleavage is greater than 10 µM. Further, the Aβ42 levels entry in [1] (PS1 L166P mutant, 50 to 500 nM) is reported as “remained largely unaffected”; in data set [1] (V261F, R278I and L166P mutants, 500 nM) it was “small, yet significant, reproducible reduction”. Also, the “Aβ42‐lowering response” value in data set [1] (PS1 V261F and R278I mutants, 50 to 500 nM) is “partially resistant”. Moreover, the “generation of Aβ43” value in data set [1] (all PS1 mutants, 50 to 500 nM) is listed as “reduced the generation of Aβ43 for all mutants”. The logD (in general, the decadic logarithm of the distribution of all forms, ionised or not, between an organic phase and buffer at a given pH) in [3] amounted to 4. In [4], the “total Aβ levels” value was “did not reduce”. Further, the microsomal CLint in data set [5] and in data set [6] was less than 10 µL/min/mg in each case. For the same molecule, in the data set “PAMPA permeability”, the “PAMPA (permeability)” value is “High”. The “crosslinking of C99 V44Bpa to PS1” value in [7] (PS1 Y256S and R278I mutants) is listed as “unchanged crosslinking”. In addition, in data set [7] (WT PS1, increasing concentrations), the “crosslinking of C99 V44Bpa to PS1 NTF” value is “reduced”. Moreover, the Aβ40 levels result in data set [8] was “nearly complete reduction”. Further, the solubility (commonly the dissolved amount per volume that the medium holds) in “Solubility” amounted to 3 µg/mL (≈ 6.36 µM).
Regarding `COc1cc(Nc2cc(Cc3ccc(Cl)cc3)cc(C(C)(C)O)c2)ccc1-n1cnc(C)c1` [RO‐02], the Aβ43 production result in [1] (setting [11]) was “only poorly, if at all”; in data set [1] (setting [13]), “weakly reduced”. For the same molecule, the Aβ42 levels result in data set [1] (setting [12]) was “remained unaffected”.
Turning to “presenilin 1 (PS1) WT (from UniProt P49768) G382A”, the results for the other: V44 CL efficiency (Rel. to DMSO-treated), median in the data set with C99 V44Bpa [9] (setting [14]), with C99 V44Bpa [9] (setting [15]) and with C99 V44Bpa [9] (setting [16]) were 0.93, 0.87 and 0.67, respectively.
Take “presenilin 1 (PS1) WT (from UniProt P49768) L166P”: the other: V44 CL efficiency (Rel. to DMSO-treated), median with C99 V44Bpa [9] (setting [14]) stood at 1; with C99 V44Bpa [9] (setting [15]), 0.93; in the data set with C99 V44Bpa [9] (setting [16]) it was 0.73.
With “presenilin 1 (PS1) WT (from UniProt P49768) L435F”, the other: V44 CL efficiency (Rel. to DMSO-treated), median in the data set with C99 V44Bpa [10] (RO7019009 50 nM) was found to be 1; with C99 V44Bpa [10] (RO7019009 500 nM), 0.78; with C99 V44Bpa [10] (RO7019009 2500 nM), 0.6.
With “presenilin 1 (PS1) WT (from UniProt P49768) M292D”, the results for the other: V44 CL efficiency (Rel. to DMSO-treated), median with C99 V44Bpa [10] (RO7019009 50 nM), in the data set with C99 V44Bpa [10] (RO7019009 500 nM) and with C99 V44Bpa [10] (RO7019009 2500 nM) were 1.1, 0.92 and 0.65, respectively.
As to “presenilin 1 (PS1) WT (from UniProt P49768) R278I”, the other: V44 CL efficiency (Rel. to DMSO-treated), median stood at 1 in the data set with C99 V44Bpa [10] (RO7019009 50 nM), 1 with C99 V44Bpa [10] (RO7019009 500 nM) and 0.92 with C99 V44Bpa [10] (RO7019009 2500 nM).
Turning to “presenilin 1 (PS1) WT (from UniProt P49768) V261F”, the other: V44 CL efficiency (Rel. to DMSO-treated), median with C99 V44Bpa [10] (RO7019009 50 nM) amounted to 0.95; in the data set with C99 V44Bpa [10] (RO7019009 500 nM) it was 0.65; in the data set with C99 V44Bpa [10] (RO7019009 2500 nM), 0.62.
Consider “presenilin 1 (PS1) WT (from UniProt P49768) Y256S”, for which the other: V44 CL efficiency (Rel. to DMSO-treated), median with C99 V44Bpa [9] (setting [14]) came out at 1.1; with C99 V44Bpa [9] (setting [15]), 0.88; in the data set with C99 V44Bpa [9] (setting [16]), 0.95.
